We go through 30 compounds from ChEMBL document CHEMBL5584334, “Discovery of a Covalent Inhibitor of Pro-Caspase-1 Zymogen Blocking NLRP3 Inflammasome Activation and Pyroptosis” (J Med Chem, 2024).

Molecules are shown by their SMILES. The source made the active and inactive calls. No cut-off for these calls is given here. Residues, ends and D or L forms follow the SMILES beside them. *: point of attachment. Cbz = O=C(OCc1ccccc1)*; CH2F = FC* Bounds are passed on as bounds.

In test [1] the target is T1, Caspase-1 (Homo sapiens) (UniProt P29466).
T1 sequence (whole entry): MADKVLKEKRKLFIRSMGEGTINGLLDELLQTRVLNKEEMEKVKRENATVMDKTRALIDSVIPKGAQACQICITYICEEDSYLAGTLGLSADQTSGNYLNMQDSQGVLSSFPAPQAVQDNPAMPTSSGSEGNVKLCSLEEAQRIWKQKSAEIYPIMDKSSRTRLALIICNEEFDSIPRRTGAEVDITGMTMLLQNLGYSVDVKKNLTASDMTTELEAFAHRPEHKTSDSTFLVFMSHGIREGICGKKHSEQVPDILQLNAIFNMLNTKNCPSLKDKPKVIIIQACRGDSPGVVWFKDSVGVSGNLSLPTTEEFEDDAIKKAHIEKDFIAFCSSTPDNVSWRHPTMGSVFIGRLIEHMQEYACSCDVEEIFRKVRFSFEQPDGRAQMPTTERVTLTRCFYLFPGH
Put plainly: Inhibition of recombinant human caspase-1 expressed in Escherichia coli BL21 cells assessed as remaining activity at 10 uM using […] as substrate incubated for 30 mins relative to control.

The target of test [2] is T1, Caspase-1 (Homo sapiens). Put plainly: Inhibition of recombinant human caspase-1 expressed in Escherichia coli BL21 cells assessed as remaining activity at 100 uM using […] as substrate incubated for 30 mins relative to control.
A further test addresses T2, Caspase-1 (Homo sapiens, UniProt P29466).
T2 sequence (P29466 whole entry): T1 sequence (whole entry)
Put plainly: Inhibition of recombinant human caspase-1 expressed in Escherichia coli BL21 cells using […] as substrate incubated for 30 mins.

The target in test [3] is T1, Caspase-1 (Homo sapiens). Put plainly: Inhibition of caspase-1 activity (unknown origin). As to conditions: dose 50-300 µM.
Test [4] has as its target T1, Caspase-1 (Homo sapiens). In words: Inhibition of recombinant human caspase-1 expressed in Escherichia coli BL21 cells at 5 to 50 uM using […] as substrate incubated for 30 mins. Particulars: dose 5-50 µM.
In test [5] the target is NACHT, LRR and PYD domains-containing protein 3 (Mus musculus) (UniProt Q8R4B8). Put plainly: Inhibition of NLRP3 inflammasome activation activation in LPS/nigericin stimulated mouse J774.A1 cells assessed as reduction in IL-1beta production pretreated with LPS for 3 hrs prior to compound addition for 30 mins followed by nigericin addition and measured after 45 mins by ELISA. It is filed as cell-based. As to conditions: dose 0.001-2000 nM, time 75.0 min. On the technique in general: In an ELISA, binding on a coated surface is turned into a signal by an enzyme label.

Another test addresses T3, Caspase-3 (Mus musculus) (UniProt P70677).
T3 sequence (whole entry): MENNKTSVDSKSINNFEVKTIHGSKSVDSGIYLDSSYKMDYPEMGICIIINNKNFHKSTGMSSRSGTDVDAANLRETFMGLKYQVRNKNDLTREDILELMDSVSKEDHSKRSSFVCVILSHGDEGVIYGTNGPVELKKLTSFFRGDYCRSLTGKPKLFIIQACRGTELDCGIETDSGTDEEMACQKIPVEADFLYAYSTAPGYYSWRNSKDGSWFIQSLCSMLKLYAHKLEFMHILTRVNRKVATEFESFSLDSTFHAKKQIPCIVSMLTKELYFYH
Put plainly: Inhibition of cisplatin induced caspase-3 activation in mouse J774.A1 cells at 1 uM preincubated for 30 mins followed by cisplatin addition and incubated overnight. It is filed as cell-based.

For the next test, the target named is T4, Caspase-7 (Mus musculus) (UniProt P97864).
T4 sequence (whole entry): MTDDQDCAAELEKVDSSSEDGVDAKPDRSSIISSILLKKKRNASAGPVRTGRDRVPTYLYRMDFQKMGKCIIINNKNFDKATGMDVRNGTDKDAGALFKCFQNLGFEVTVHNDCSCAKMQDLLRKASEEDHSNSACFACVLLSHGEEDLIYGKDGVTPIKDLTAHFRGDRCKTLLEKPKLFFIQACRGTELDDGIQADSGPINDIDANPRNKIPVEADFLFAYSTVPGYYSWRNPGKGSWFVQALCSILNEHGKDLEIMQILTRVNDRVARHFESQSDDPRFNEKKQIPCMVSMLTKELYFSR
Put plainly: Inhibition of cisplatin induced caspase-7 activation in mouse J774.A1 cells at 1 uM preincubated for 30 mins followed by cisplatin addition and incubated overnight. It is filed as cell-based.

NACHT, LRR and PYD domains-containing protein 3 (Mus musculus), sequence (Q8R4B8 whole entry, the tested form may be a part): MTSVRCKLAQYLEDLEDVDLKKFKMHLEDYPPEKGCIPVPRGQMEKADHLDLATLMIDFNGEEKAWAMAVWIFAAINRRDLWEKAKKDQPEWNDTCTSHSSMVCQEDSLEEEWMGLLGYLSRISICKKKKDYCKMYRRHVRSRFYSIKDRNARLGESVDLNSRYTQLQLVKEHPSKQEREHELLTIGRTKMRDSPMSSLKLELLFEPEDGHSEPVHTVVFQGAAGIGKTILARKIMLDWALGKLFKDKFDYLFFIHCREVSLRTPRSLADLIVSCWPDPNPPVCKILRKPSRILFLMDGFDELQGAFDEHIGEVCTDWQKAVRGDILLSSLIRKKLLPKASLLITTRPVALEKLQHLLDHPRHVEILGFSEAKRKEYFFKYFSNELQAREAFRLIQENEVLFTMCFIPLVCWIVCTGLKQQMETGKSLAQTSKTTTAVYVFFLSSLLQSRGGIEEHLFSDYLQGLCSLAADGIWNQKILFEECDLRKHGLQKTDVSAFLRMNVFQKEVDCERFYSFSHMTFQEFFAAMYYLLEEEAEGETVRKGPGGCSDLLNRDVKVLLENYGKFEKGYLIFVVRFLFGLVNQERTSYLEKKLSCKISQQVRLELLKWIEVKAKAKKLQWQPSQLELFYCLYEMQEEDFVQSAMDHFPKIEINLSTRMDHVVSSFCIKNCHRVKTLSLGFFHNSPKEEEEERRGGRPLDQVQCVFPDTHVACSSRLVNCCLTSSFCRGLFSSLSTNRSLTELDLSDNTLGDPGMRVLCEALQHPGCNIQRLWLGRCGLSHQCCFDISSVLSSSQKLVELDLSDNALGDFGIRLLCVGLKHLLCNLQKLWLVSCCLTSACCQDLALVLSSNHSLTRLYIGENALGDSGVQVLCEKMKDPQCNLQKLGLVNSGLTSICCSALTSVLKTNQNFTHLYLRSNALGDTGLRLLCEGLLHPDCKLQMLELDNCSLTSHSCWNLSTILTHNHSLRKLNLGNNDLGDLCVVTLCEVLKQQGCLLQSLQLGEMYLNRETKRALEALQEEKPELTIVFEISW

One may read the IC50 as the concentration at which inhibition is half-maximal. For `CC(C)(C)OC(=O)[C@@H]1C[C@@H](N=C=S)C=C[C@@]12C(=O)N(C(=O)OCc1ccccc1)c1cc(F)c(F)cc12`, the results for the Activity at Caspase-1 (Homo sapiens) [1] and on Caspase-1 (Homo sapiens) [2] were 73% and 21%, respectively. For the same compound, the IC50 at Caspase-1 is 43.6 µM.

Turning to `COc1ccc2c(c1)[C@]1(C=C[C@H](N=C=S)C[C@H]1C(=O)OC(C)(C)C)C(=O)N2`, the figures for the Activity on Caspase-1 (Homo sapiens) [1] and on Caspase-1 (Homo sapiens) [2] were 75% and 10%, respectively. For the same compound, at Caspase-1, the concentration for half-maximal inhibition (IC50) stood at 40.5 µM.

Take `COC(=O)N1C(=O)[C@@]2(C=C[C@H](N=C=S)C[C@H]2C(=O)OC(C)(C)C)c2ccccc21`: the Activity on Caspase-1 (Homo sapiens) [1] was determined as 68%; on Caspase-1 (Homo sapiens) [2] it was 34%. Besides, the concentration for half-maximal inhibition (IC50) at Caspase-1 came to 58.2 µM.

In the case of `CC(C)(C)OC(=O)[C@@H]1CC=C[C@@H](SC#N)[C@@]12C(=O)Nc1ccc(NC(=O)CCCC[C@@H]3SC[C@@H]4NC(=O)N[C@@H]43)cc12`, the inhibition entry on Caspase-1 (Homo sapiens) [3] is “inactive”.

For the compound `COc1ccc2c(c1)[C@]1(C=C[C@@H](N=C=S)C[C@H]1C(=O)OC(C)(C)C)C(=O)N2C(=O)OCc1ccccc1`, on Caspase-1 (Homo sapiens) [4], the “inhibition (active/not active)” value is “Active”.

In the case of `CC(C)OC(=O)[C@@H]1C[C@@H](N=C=S)C=C[C@@]12C(=O)N(C(=O)OCc1ccccc1)c1ccccc12`, the Activity at Caspase-1 (Homo sapiens) [1] stood at 104%; on Caspase-1 (Homo sapiens) [2], 19%. The IC50 at Caspase-1 is 72.9 µM.

For `O=C(Oc1ccccc1)[C@@H]1C[C@@H](N=C=S)C=C[C@@]12C(=O)N(C(=O)OCc1ccccc1)c1ccccc12`, the Activity amounted to 101% on Caspase-1 (Homo sapiens) [1] and 56% on Caspase-1 (Homo sapiens) [2]. Besides, the IC50 on Caspase-1 was > 100 µM.

Turning to `C[S+]([O-])CCCCN=C=S` (stereo not drawn), the “inhibition (active/not active)” value at Caspase-1 (Homo sapiens) [4] was “inactive”. Besides, the inhibition entry in test [5] is “Dose-Dependent Effect”.

As for `COc1ccc2c(c1)[C@@]1(C=C[C@@H](N=C=S)C[C@@H]1C(=O)OC(C)(C)C)C(=O)N2C(=O)OCc1ccccc1`, at Caspase-1 (Homo sapiens) [4], the “inhibition (active/not active)” value was “Active”.

As to `CC(C)(C)OC(=O)[C@@H]1C[C@@H](NC(=S)Nc2ccccc2)C=C[C@@]12C(=O)N(C(=O)OCc1ccccc1)c1ccccc12`, the Activity at Caspase-1 (Homo sapiens) [1] was determined as 112%; at Caspase-1 (Homo sapiens) [2], 84%. Besides, the IC50 on Caspase-1 is > 100 µM.

As for `CCC1=C[C@@]2(C(=O)N(C(=O)OCc3ccccc3)c3ccccc32)[C@H](C(=O)OC(C)(C)C)C[C@@]1(CC)N=C=S`, the figures for the Activity on Caspase-1 (Homo sapiens) [1] and at Caspase-1 (Homo sapiens) [2] were 108% and 90%, respectively. Also, the IC50 on Caspase-1 was > 100 µM.

As to `COC(=O)C[C@H](NC(=O)[C@H](C)NC(=O)[C@@H](NC(=O)OCc1ccccc1)C(C)C)C(=O)CF` (Cbz-Val-Ala-Asp(OMe)-CH2F), the inhibition result on Caspase-3 (Mus musculus) and on Caspase-7 (Mus musculus) was “Active” each time.

Turning to `CC(C)(C)OC(=O)[C@@H]1C[C@@H](N=C=S)C=C[C@@]12C(=O)N(C(=O)OCc1ccccc1)c1c(F)cccc12`, the Activity on Caspase-1 (Homo sapiens) [1] worked out at 85%; on Caspase-1 (Homo sapiens) [2], 13%. In addition, the IC50 on Caspase-1 is 79.1 µM.

As to `CC(C)(C)OC(=O)[C@@H]1C[C@@H](N=C=S)C=C[C@@]12C(=O)N(C(=O)OCc1ccccc1)c1cc(Br)ccc12`, the Activity on Caspase-1 (Homo sapiens) [1] turned out to be 71%; at Caspase-1 (Homo sapiens) [2], 20%. Further, the IC50 on Caspase-1 amounted to 15.4 µM.

On to `CC(C)(C)OC(=O)[C@@H]1C[C@@H](N=C=S)C=C[C@@]12C(=O)N(C(=O)OCC1c3ccccc3-c3ccccc31)c1ccccc12`, for which the values for the Activity on Caspase-1 (Homo sapiens) [1] and at Caspase-1 (Homo sapiens) [2] were 90% and 24%, respectively. Further, the IC50 at Caspase-1 came to 75.7 µM.

`COC(=O)[C@@H]1C[C@@H](N=C=S)C=C[C@@]12C(=O)N(C(=O)OCc1ccccc1)c1ccccc12`: the values for the Activity at Caspase-1 (Homo sapiens) [1] and on Caspase-1 (Homo sapiens) [2] were 78% and 9%, respectively. For the same compound, on Caspase-1, the IC50 stood at 29.4 µM.

Regarding `O=C(OCc1ccccc1)[C@@H]1C[C@@H](N=C=S)C=C[C@@]12C(=O)N(C(=O)OCc1ccccc1)c1ccccc12`, the Activity on Caspase-1 (Homo sapiens) [1] was 104%; at Caspase-1 (Homo sapiens) [2], 42%. The IC50 on Caspase-1 is 85.5 µM.

On to `S=C=NCc1ccccc1`, for which the “inhibition (active/not active)” value at Caspase-1 (Homo sapiens) [4] was “Active”. Also, the inhibition result in test [5] is “Dose-Dependent Effect”.

`CC(C)(C)OC(=O)[C@@H]1C[C@@H](N=C=S)C=C[C@@]12C(=O)N(C(=O)OCc1ccccc1)c1ccc(I)cc12`: the Activity on Caspase-1 (Homo sapiens) [1] stood at 88%; at Caspase-1 (Homo sapiens) [2], 61%. In addition, the IC50 on Caspase-1 was > 100 µM.

For `CC(C)(C)OC(=O)[C@@H]1C[C@@H](N=C=S)C=C[C@@]12C(=O)N(C(=O)OCc1ccccc1)c1ccccc12`, the Activity stood at 76% at Caspase-1 (Homo sapiens) [1] and 15% at Caspase-1 (Homo sapiens) [2]. In addition, on Caspase-1, the IC50 stood at 37.6 µM.

With `CC1=C[C@@]2(C(=O)N(C(=O)OCc3ccccc3)c3ccccc32)[C@H](C(=O)OC(C)(C)C)C[C@@]1(C)N=C=S`, the figures for the Activity at Caspase-1 (Homo sapiens) [1] and on Caspase-1 (Homo sapiens) [2] were 103% and 91%, respectively. Besides, at Caspase-1, the IC50 was > 100 µM.

Regarding `CC(C)(C)OC(=O)[C@@H]1C[C@@H](N=C=S)C=C[C@@]12C(=O)N(C(=O)OCc1ccccc1)c1ccc(Cl)cc12`, the Activity amounted to 77% on Caspase-1 (Homo sapiens) [1] and 24% at Caspase-1 (Homo sapiens) [2]. The concentration for half-maximal inhibition (IC50) on Caspase-1 turned out to be 84.8 µM.

As to `S=C=NCCc1ccccc1`, the “inhibition (active/not active)” value at Caspase-1 (Homo sapiens) [4] was “inactive”. The inhibition result in test [5] is “Dose-Dependent Effect”.

With `COc1ccc2c(c1)[C@@]1(C(=O)N2C(=O)OCc2ccccc2)[C@@H](SC#N)C=CC[C@H]1C(=O)OC(C)(C)C`, on Caspase-1 (Homo sapiens) [4], the “inhibition (active/not active)” value is “inactive”.

As for `Cc1ccc2c(c1)[C@]1(C=C[C@H](N=C=S)C[C@H]1C(=O)OC(C)(C)C)C(=O)N2C(=O)OCc1ccccc1`, the Activity on Caspase-1 (Homo sapiens) [1] is 68%; on Caspase-1 (Homo sapiens) [2], 15%. Moreover, the IC50 on Caspase-1 was 28.4 µM.

Regarding `O=C(c1ccccc1)[C@@H]1C[C@@H](N=C=S)C=C[C@@]12C(=O)N(C(=O)OCc1ccccc1)c1ccccc12`, the Activity at Caspase-1 (Homo sapiens) [1] is 56%; on Caspase-1 (Homo sapiens) [2] it was 15%. Moreover, the IC50 on Caspase-1 was determined as 26.2 µM.

Consider `CC(C)(C)OC(=O)[C@@H]1C[C@@H](N=C=S)C=C[C@@]12C(=O)N(C(=O)OCc1ccccc1)c1ccc(F)cc12`, for which the figures for the Activity at Caspase-1 (Homo sapiens) [1] and at Caspase-1 (Homo sapiens) [2] were 81% and 17%, respectively. Besides, the IC50 on Caspase-1 was 80.7 µM.

Turning to `CC(C)(C)OC(=O)[C@@H]1C[C@@H](N=C=S)C=C[C@@]12C(=O)N(C(=O)OCc1ccccc1)c1ccc(Br)cc12`, the Activity on Caspase-1 (Homo sapiens) [1] was found to be 92%; on Caspase-1 (Homo sapiens) [2] it was 31%. The IC50 on Caspase-1 is 89.8 µM.

As for `CC(C)(C)OC(=O)[C@@H]1C[C@@H](NC(=S)NN)C=C[C@@]12C(=O)N(C(=O)OCc1ccccc1)c1ccccc12`, the Activity was determined as 107% at Caspase-1 (Homo sapiens) [1] and 84% at Caspase-1 (Homo sapiens) [2]. Further, the IC50 on Caspase-1 was > 100 µM.

Take `CC1=C[C@@]2(C(=O)N(C(=O)OCc3ccccc3)c3ccccc32)[C@H](C(=O)OC(C)(C)C)C[C@H]1N=C=S`: the Activity at Caspase-1 (Homo sapiens) [1] worked out at 93%; at Caspase-1 (Homo sapiens) [2] it was 84%. In addition, the IC50 at Caspase-1 was > 100 µM.
